Reference: ChEMBL document CHEMBL4152373 (Bioorg Med Chem, 2018)

Key:
[1] = Oral bioavailability in Sprague-Dawley rat at 3 mg/kg administered via gavage as single dose by LC-MS/MS analysis; type: ADME, organism-based; settings: in vivo
[2] = target: T1, Glucose-dependent insulinotropic receptor (Homo sapiens) (UniProt Q8TDV5); experiment: Antagonist activity at GPR119 (unknown origin) at 10 uM by cAMP accumulation based assay relative to control; type: functional
T1 sequence (whole entry): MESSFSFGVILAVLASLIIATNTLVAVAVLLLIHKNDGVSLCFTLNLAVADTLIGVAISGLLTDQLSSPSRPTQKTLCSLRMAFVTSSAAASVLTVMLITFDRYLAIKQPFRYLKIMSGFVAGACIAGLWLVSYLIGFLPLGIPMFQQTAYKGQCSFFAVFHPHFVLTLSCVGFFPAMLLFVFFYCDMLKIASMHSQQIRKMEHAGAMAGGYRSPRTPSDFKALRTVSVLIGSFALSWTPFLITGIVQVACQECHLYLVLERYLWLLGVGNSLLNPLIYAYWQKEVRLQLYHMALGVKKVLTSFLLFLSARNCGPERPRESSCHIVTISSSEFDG

[3] = target: T2, Glucagon-like peptide 2 receptor (Homo sapiens) (UniProt O95838); settings: 10 uM
T2 sequence (whole entry): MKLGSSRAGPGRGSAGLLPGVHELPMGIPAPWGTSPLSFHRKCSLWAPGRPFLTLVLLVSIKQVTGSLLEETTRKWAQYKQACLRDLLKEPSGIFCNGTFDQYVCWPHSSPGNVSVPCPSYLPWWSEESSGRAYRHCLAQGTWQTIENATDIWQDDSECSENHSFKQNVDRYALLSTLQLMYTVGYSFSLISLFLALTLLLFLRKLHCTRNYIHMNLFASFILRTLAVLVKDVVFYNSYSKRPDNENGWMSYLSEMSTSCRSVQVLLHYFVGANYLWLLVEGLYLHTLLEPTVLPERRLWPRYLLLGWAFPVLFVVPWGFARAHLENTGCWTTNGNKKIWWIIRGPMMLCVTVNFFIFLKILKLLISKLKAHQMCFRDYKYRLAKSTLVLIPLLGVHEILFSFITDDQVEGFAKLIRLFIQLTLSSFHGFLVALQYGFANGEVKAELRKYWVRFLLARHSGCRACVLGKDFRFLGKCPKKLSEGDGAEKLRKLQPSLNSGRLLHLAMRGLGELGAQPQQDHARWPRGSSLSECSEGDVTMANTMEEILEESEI
Description: Antagonist activity at GLP2R (unknown origin) at 10 uM by cAMP accumulation based assay relative to control

[4] = target: T3, Free fatty acid receptor 4 (Homo sapiens) (UniProt Q5NUL3); experiment: Antagonist activity at FFA4R (unknown origin) at 10 uM by aequorin based assay relative to control; type: functional
T3 sequence (whole entry): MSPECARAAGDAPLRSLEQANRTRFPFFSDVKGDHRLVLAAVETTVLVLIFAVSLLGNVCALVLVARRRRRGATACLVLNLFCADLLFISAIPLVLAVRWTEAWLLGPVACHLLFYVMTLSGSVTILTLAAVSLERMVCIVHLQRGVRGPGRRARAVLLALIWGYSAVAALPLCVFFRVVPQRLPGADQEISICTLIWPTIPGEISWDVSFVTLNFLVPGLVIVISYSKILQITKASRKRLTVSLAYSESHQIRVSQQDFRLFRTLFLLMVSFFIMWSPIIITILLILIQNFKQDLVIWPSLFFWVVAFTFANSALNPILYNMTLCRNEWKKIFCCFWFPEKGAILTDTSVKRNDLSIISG

[5] = target: Hydroxycarboxylic acid receptor 2 (Homo sapiens) (UniProt Q8TDS4); experiment: Agonist activity at GPR109a (unknown origin) at 10 uM by aequorin based assay relative to control; type: functional
[6] = target: Glucagon-like peptide 1 receptor (Homo sapiens) (UniProt P43220); settings: 10 uM
Description: Antagonist activity at GLP1R (unknown origin) at 10 uM by cAMP accumulation based assay relative to control

Mus musculus [7] = experiment: Antidiabetic activity in C57Bl/6J mouse assessed as inhibition of blood glucose AUC (0 to 120 mins) at 50 mg/kg, po treated prior to glucose challenge by OGTT relative to control; type: functional
Mus musculus [8] = experiment: Dose normalized unbound AUC in C57Bl/6J mouse at 50 mg/kg, po administered via gavage as single dose by LC-MS/MS analysis; type: ADME, organism-based; settings: in vivo
[9] = target: T4, Glucocorticoid receptor (Homo sapiens) (UniProt P04150); settings: 10 uM
T4 sequence (whole entry): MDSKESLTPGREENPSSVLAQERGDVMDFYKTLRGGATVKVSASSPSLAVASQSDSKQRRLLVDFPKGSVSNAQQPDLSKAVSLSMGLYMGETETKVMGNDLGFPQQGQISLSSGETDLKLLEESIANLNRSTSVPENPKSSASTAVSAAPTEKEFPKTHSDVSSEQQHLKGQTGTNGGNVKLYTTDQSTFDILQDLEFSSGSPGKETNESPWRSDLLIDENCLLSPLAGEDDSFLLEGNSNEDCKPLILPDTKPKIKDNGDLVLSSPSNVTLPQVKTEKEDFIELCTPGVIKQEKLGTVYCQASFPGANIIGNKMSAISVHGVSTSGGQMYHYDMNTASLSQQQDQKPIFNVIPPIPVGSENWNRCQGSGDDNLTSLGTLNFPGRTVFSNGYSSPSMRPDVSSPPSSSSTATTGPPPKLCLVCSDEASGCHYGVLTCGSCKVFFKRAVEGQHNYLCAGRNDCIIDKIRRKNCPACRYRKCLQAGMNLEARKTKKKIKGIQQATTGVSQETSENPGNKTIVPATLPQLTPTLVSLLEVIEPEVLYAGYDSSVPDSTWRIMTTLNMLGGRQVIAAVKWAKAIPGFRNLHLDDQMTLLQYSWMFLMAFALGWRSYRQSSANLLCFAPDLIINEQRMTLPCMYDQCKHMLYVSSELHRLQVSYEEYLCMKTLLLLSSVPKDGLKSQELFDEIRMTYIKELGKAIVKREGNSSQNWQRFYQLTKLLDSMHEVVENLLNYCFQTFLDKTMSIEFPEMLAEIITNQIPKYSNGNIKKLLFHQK
Description: Antagonist activity at GCR (unknown origin) at 10 uM by cAMP accumulation based assay relative to control

[10] = Fraction unbound in mouse plasma at 5 uM after 4 hrs by equilibrium dialysis method
[11] = Fraction unbound in rat plasma at 5 uM after 4 hrs by equilibrium dialysis method
[12] = target: T5, Free fatty acid receptor 3 (Homo sapiens) (UniProt O14843); settings: 10 uM
T5 sequence (whole entry): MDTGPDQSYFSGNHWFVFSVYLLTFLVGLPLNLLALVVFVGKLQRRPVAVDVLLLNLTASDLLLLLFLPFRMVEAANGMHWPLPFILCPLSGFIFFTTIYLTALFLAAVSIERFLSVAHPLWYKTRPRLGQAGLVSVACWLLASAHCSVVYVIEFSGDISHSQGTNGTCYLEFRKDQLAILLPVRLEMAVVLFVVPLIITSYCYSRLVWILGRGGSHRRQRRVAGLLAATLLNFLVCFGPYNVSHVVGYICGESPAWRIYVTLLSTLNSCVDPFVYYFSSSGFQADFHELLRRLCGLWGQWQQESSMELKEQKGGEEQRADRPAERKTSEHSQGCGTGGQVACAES

Glucagon-like peptide 1 receptor (Homo sapiens), sequence (P43220 whole entry): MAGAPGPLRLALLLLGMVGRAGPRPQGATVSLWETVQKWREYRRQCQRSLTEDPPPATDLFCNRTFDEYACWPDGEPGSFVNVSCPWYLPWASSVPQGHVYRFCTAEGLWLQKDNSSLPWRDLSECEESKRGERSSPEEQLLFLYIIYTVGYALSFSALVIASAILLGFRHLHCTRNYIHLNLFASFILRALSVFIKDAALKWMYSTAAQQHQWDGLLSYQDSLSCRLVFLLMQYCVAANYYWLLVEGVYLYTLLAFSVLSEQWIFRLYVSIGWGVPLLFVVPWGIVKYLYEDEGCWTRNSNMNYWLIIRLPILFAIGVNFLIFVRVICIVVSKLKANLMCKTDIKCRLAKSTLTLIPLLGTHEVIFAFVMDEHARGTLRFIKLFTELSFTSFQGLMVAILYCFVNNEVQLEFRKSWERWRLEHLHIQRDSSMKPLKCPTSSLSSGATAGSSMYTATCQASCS
Hydroxycarboxylic acid receptor 2 (Homo sapiens), sequence (Q8TDS4 whole entry): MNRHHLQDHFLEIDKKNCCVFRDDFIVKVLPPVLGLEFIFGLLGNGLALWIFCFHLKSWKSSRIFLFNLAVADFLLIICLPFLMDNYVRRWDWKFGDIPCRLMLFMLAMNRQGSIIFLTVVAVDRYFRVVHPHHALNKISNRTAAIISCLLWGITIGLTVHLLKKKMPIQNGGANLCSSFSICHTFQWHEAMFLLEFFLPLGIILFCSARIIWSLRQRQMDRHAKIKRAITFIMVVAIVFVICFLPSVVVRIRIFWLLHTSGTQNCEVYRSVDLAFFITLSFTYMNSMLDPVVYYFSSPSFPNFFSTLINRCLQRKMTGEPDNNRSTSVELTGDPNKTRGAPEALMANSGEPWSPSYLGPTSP

bioavailability [1]: 47%
inhibition [2]: < 10%
inhibition [3]: < 10%
inhibition [4]: 16%
Activity [5]: < 10%
inhibition [6]: < 10%
fAUC/dose (Mus musculus [8]): 2.1 µM·min
inhibition [9]: < 10%
fraction unbound at 4 h, 5 µM [10]: 0.0023
fraction unbound at 4 h, 5 µM [11]: 0.0006
inhibition [12]: < 10%
SMILES: COc1ccc(-c2ccccc2-c2csc(N(C(=O)[C@@H](CC(=O)O)CC3CCCC3)C3CC3)n2)cn1
inhibition in vivo at 50 mg/kg (Mus musculus [7]): 33%
